Laboratory results as given in article PMC10222328 (Pharmaceuticals, 2023).

Assays:
[1] = tested on: carrageenan-induced rat paw edema; test: Carrageenan-induced rat paw edema model; format: in vivo, Wistar albino rats; conditions: for Rat paw thickness: mean ± SD; for inhibition in vivo at 2.5 mg/kg / inhibition in vivo at 5 mg/kg / inhibition in vivo at 10 mg/kg: Rattus norvegicus, po
Protocol: In vivo assessment of anti-inflammatory activity of compounds 1–7 was conducted in the carrageenan-induced rat paw edema model. Inflammation in all rats was induced by an intraplantar injection of […] of 0.5% carrageenan saline in the left hind paw. Two hundred male Wistar albino rats (180–210 g) were divided into seven experimental (n = 168 rats, 8 rats per subgroup) and two control groups (n = 32 rats, 8 rats per subgroup).
Experimental groups involved rats that received compounds 1–7, and they were divided into three subgroups: rats received compounds 1–7 per os in three doses (2.5 mg/kg, 5 mg/kg, and 10 mg/kg) dissolved in 1% DMSO for 60 min before inducing inflammation.
In order to quantify the anti-inflammatory effect, the thickness of the left paw tissue of each rat was measured at the following time intervals: immediately before inducing inflammation (moment 0) and 1, 2, 3, and 4 h (moments 1, 2, 3, and 4) after inflammation. Tissue thickness was measured in the middle of the rat paw using a digital vernier caliper (Aerospace, Beijing, China).

COX-2 = biological target: T1, COX-2 (Homo sapiens, UniProt P35354); test: Fluorometric COX-2 inhibitor screening kit; format: biochemical; conditions: at 10 µM; mean ± standard error of two measurements; read-out: COX-2 Percent of Inhibition
T1 construct: purchased Abcam, UK
T1 sequence (P35354 18-604): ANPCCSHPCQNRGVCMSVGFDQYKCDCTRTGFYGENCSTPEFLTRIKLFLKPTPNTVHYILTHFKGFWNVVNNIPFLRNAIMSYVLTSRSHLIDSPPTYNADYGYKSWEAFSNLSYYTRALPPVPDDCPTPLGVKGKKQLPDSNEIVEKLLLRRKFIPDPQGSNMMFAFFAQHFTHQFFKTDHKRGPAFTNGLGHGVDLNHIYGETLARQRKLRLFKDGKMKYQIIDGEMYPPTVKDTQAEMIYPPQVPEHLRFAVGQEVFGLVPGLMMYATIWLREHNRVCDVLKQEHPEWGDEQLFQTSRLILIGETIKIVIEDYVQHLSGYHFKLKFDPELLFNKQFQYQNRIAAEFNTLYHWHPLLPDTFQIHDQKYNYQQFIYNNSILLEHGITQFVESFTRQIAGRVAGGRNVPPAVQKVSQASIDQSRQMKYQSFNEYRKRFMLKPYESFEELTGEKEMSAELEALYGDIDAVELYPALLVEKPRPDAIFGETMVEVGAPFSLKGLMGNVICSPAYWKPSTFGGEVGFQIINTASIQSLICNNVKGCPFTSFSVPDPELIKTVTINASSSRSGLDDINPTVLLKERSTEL
Protocol: (§1) COX-2 and 5-LOX inhibitory activities were tested using fluorometric COX-2 and 5-LOX inhibitor screening kits (Abcam, UK). These assays are based on the fluorometric detection of Prostaglandin G2 (a product generated by the COX enzyme) or on the fluorometric detection of intermediate generated by the 5-LOX enzyme. The experiments were conducted according to the manufacturers’ instructions.
(§2) For the determination of COX-2 inhibitory activity, tested compounds were dissolved in DMSO (5 mM stock solutions) and then diluted with the same solvent to obtain test solutions. Test solutions were further diluted 5X with COX assay buffer (2 µL of test solution and 8 µL COX assay buffer). […] Solvent control (SC) was prepared by adding 2 µL DMSO and 8 µL COX assay buffer, while sample (S) and enzyme control (EC) were prepared by adding 10 µL of diluted test solution and COX assay buffer, respectively, into assigned wells. For the determination of 5-LOX inhibitory activity, tested compounds were also dissolved in DMSO to prepare stock solutions with the same concentration (5mM), which were then diluted with the same solvent to obtain test solutions. Subsequently, test solutions were added to corresponding wells (2 µL).

5-LOX = biological target: T2, 5-LOX (Homo sapiens, UniProt P09917); test: Fluorometric 5-LOX inhibitor screening kit; format: biochemical; conditions: mean ± standard error of two measurements; for inhibition at 10 µM: read-out: 5-LOX Percent of Inhibition
T2 construct: purchased Abcam, UK
T2 sequence (P09917 1-674): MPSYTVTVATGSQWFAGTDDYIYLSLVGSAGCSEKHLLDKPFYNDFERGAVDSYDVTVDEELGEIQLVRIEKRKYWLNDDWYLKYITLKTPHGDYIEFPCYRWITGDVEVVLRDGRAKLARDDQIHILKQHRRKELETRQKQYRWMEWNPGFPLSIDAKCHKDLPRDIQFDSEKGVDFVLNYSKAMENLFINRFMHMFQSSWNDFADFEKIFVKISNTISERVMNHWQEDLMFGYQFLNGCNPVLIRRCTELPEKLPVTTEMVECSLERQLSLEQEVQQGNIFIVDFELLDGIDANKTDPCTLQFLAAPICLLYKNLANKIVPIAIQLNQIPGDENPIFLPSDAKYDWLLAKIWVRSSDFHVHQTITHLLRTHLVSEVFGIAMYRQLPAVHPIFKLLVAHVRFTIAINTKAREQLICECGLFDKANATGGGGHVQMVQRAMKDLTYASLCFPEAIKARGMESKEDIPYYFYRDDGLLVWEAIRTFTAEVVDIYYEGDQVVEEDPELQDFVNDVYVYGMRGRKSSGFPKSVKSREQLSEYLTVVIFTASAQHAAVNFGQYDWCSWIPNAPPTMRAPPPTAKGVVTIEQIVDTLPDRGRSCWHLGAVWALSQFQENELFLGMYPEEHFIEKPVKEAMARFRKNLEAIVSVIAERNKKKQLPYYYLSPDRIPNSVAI
Protocol: as §1, §2

[2] = 2.5 mg/kg per os, 1 h after carrageenan
[3] = 2.5 mg/kg per os, 2 h after carrageenan
[4] = 2.5 mg/kg per os, 3 h after carrageenan
[5] = 2.5 mg/kg per os, 4 h after carrageenan
[6] = 5.0 mg/kg per os, 1 h after carrageenan
[7] = 5.0 mg/kg per os, 2 h after carrageenan
[8] = 5.0 mg/kg per os, 3 h after carrageenan
[9] = 5.0 mg/kg per os, 4 h after carrageenan
[10] = 10.0 mg/kg per os, 1 h after carrageenan
[11] = 10.0 mg/kg per os, 2 h after carrageenan
[12] = 10.0 mg/kg per os, 3 h after carrageenan
[13] = 10.0 mg/kg per os, 4 h after carrageenan
[14] = 1 h, 2.5 mg/kg per os, 1 h after carrageenan
[15] = 1 h, 5.0 mg/kg per os, 1 h after carrageenan
[16] = 1 h, 10.0 mg/kg per os, 1 h after carrageenan
[17] = 2 h, 2.5 mg/kg per os, 2 h after carrageenan
[18] = 2 h, 5.0 mg/kg per os, 2 h after carrageenan
[19] = 2 h, 10.0 mg/kg per os, 2 h after carrageenan
[20] = 3 h, 2.5 mg/kg per os, 3 h after carrageenan
[21] = 3 h, 5.0 mg/kg per os, 3 h after carrageenan
[22] = 3 h, 10.0 mg/kg per os, 3 h after carrageenan
[23] = 4 h, 2.5 mg/kg per os, 4 h after carrageenan
[24] = 4 h, 5.0 mg/kg per os, 4 h after carrageenan
[25] = 4 h, 10.0 mg/kg per os, 4 h after carrageenan

| SMILES | Rat paw thickness [1, 2] [mm] | Rat paw thickness [1, 3] [mm] | Rat paw thickness [1, 4] [mm] | Rat paw thickness [1, 5] [mm] | Rat paw thickness [1, 6] [mm] | Rat paw thickness [1, 7] [mm] | Rat paw thickness [1, 8] [mm] | Rat paw thickness [1, 9] [mm] | Rat paw thickness [1, 10] [mm] | Rat paw thickness [1, 11] [mm] | Rat paw thickness [1, 12] [mm] | Rat paw thickness [1, 13] [mm] | inhibition in vivo at 2.5 mg/kg [1, 14] [%] | inhibition in vivo at 5 mg/kg [1, 15] [%] | inhibition in vivo at 10 mg/kg [1, 16] [%] | inhibition in vivo at 2.5 mg/kg [1, 17] [%] | inhibition in vivo at 5 mg/kg [1, 18] [%] | inhibition in vivo at 10 mg/kg [1, 19] [%] | inhibition in vivo at 2.5 mg/kg [1, 20] [%] | inhibition in vivo at 5 mg/kg [1, 21] [%] | other results |
| --- | --- | --- | --- | --- | --- | --- | --- | --- | --- | --- | --- | --- | --- | --- | --- | --- | --- | --- | --- | --- | --- |
| COc1ccc2cc([C@H](C)C(=O)NC(=S)Nc3ccc(F)cc3)ccc2c1 [Compound 1, (S)-N-((4-fluorophenyl)carbamothioyl)-2-(6-methoxynaphthalen-2-yl)propanamide] | 6.50 ± 0.40 | 6.50 ± 0.40 | 6.20 ± 0.30 | 5.53 ± 0.29 | 7.00 ± 0.10 | 6.50 ± 0.17 | 5.8 ± 0.20 | 5.27 ± 0.29 | 7.03 ± 0.12 | 6.60 ± 0.10 | 6.10 ± 0.17 | 5.27 ± 0.50 | 20.3 | -7.22 | -5.84 | 11.1 | 3.45 | 1.92 | 10.5 | 23.3 | inhibition in vivo at 10 mg/kg [1, 22]: 10.5%; inhibition in vivo at 2.5 mg/kg [1, 23]: 33.3%; inhibition in vivo at 5 mg/kg [1, 24]: 40.2%; inhibition in vivo at 10 mg/kg [1, 25]: 44.8%; inhibition at 10 µM (COX-2): 24.7 ± 1.11%; inhibition at 10 µM (5-LOX): 34.2 ± 1.04%; IC50 (5-LOX): 19.2 ± 0.96 µM |
| CCOC(=O)C(Cc1ccccc1)NC(=S)NC(=O)C(C)c1ccc2cc(OC)ccc2c1 [Compound 6, Ethyl(((S)-2-(6-methoxynaphthalen-2-yl)propanoyl)carbamothioyl)-L-phenylalaninate] | 6.17 ± 0.31 | 5.87 ± 0.23 | 5.37 ± 0.55 | 4.93 ± 0.21 | 6.47 ± 0.57 | 6.17 ± 0.06 | 5.77 ± 0.06 | 5.27 ± 0.21 | 6.20 ± 0.20 | 6.17 ± 0.23 | 5.27 ± 0.72 | 5.03 ± 0.76 | 11.8 | 17.5 | 21.6 | 15.7 | 21.8 | 14.2 | 26.9 | 28.8 | inhibition in vivo at 10 mg/kg [1, 22]: 47.1%; inhibition in vivo at 2.5 mg/kg [1, 23]: 37.9%; inhibition in vivo at 5 mg/kg [1, 24]: 44.7%; inhibition in vivo at 10 mg/kg [1, 25]: 49.4%; inhibition at 10 µM (COX-2): 24 ± 5.36%; inhibition at 10 µM (5-LOX): 23.6 ± 2.14% |
| COC(=O)[C@H](Cc1cn(C)c2ccccc12)NC(=S)NC(=O)[C@@H](C)c1ccc2cc(OC)ccc2c1 [Compound 7, Methyl-N^α-(((S)-2-(6-methoxynaphthalen-2-yl)propanoyl)carbamothioyl)-1-methyltryptophanate] | 7.03 ± 0.15 | 6.47 ± 0.21 | 6.10 ± 0.20 | 5.87 ± 0.21 | 7.10 ± 0.17 | 6.80 ± 0.20 | 6.43 ± 0.32 | 6.03 ± 0.61 | 6.87 ± 0.25 | 6.50 ± 0.36 | 6.03 ± 0.21 | 5.47 ± 0.38 | 21.6 | 24.4 | 14.8 | 38.7 | 29.5 | 21.8 | 47 | 36.1 | inhibition in vivo at 10 mg/kg [1, 22]: 32.4%; inhibition in vivo at 2.5 mg/kg [1, 23]: 49.4%; inhibition in vivo at 5 mg/kg [1, 24]: 47.1%; inhibition in vivo at 10 mg/kg [1, 25]: 54.1%; inhibition at 10 µM (COX-2): 24.2 ± 5.77%; inhibition at 10 µM (5-LOX): 20.7 ± 4.19% |
| CCOc1ccc(NC(=S)NC(=O)[C@@H](C)c2ccc3cc(OC)ccc3c2)cc1 [Compound 3, (S)-N-((4-ethoxyphenyl)carbamothioyl)-2-(6-methoxynaphthalen-2-yl)propanamide] | 6.25 ± 0.21 | 6.0 ± 0.57 | 5.50 ± 0.42 | 5.10 ± 0.14 | 6.40 ± 0.79 | 5.73 ± 0.38 | 5.44 ± 0.28 | 4.97 ± 0.42 | 6.23 ± 0.25 | 5.80 ± 0.26 | 5.27 ± 0.15 | 4.67 ± 0.38 | 19.6 | 6.53 | 3.78 | 21.8 | 26.4 | 12.6 | 34.2 | 28.6 | inhibition in vivo at 10 mg/kg [1, 22]: 25.1%; inhibition in vivo at 2.5 mg/kg [1, 23]: 44.7%; inhibition in vivo at 5 mg/kg [1, 24]: 42.5%; inhibition in vivo at 10 mg/kg [1, 25]: 47 to 54%; inhibition at 10 µM (COX-2): 23.4 ± 0.57%; inhibition at 10 µM (5-LOX): 47 ± 4.32%; IC50 (5-LOX): 9.52 ± 1.51 µM |
